From US11173160B2 (UNIVERSITY OF PITTSBURGH—OF THE COMMONWEALTH SYSTEM OF …, priority 2019, dated 2021)
Where two headings read alike, the source gives them in different places.

Assays:
[1] = target: CDK3 (Homo sapiens, UniProt Q00526); settings: Source Millipore; 10-point titration in duplicates, done once; cited from earlier work
[2] = target: CaMKVI (Homo sapiens, UniProt Q16566); settings: cited from earlier work
[3] = target: JAK1 (Homo sapiens, UniProt P23458); settings: Source Invitrogen; 10-point titration in duplicates, done once; cited from earlier work
[4] = target: JNK1 (Homo sapiens, UniProt P45983); settings: cited from earlier work
[5] = target: Lck (Homo sapiens, UniProt P06239); settings: Source Millipore; 10-point titration in duplicates, done once; cited from earlier work
[6] = cited from earlier work
[7] = test system: DIPG-IV cells expressing MYC S62D; assay: EC50 of TG02 in DIPG-IV cells expressing MYC S62D; format: cell-based, human; settings: MYC S62D vs empty vector control
Method: (§1) Direct cell counts were performed using the Countess II FL Automated Cell Counter (ThermoFisher Scientific). Alamar blue viability (ThermoFisher Scientific) and the 5-bromo-2′-deoxyuridine (BrdU) incorporated cell proliferation assay (Cell Signaling Technology Cat #6813) were performed using the manufacturer's standard protocol. EC50 curve analysis was performed using raw fluorescent Alamar blue values that were inputted into PRISM 7.0. Drug concentrations were log 10 transformed and values normalized to percent viability with respect to vehicle treated cells. EC50 values were interpolated from a log inhibitor vs. normalized response with variable slope using a least square fit model.

[8] = target: p38α (Homo sapiens, UniProt Q16539); settings: cited from earlier work
[9] = target: Aurora A (Homo sapiens, UniProt O14965); settings: cited from earlier work
[10] = target: CDK4 (Homo sapiens, UniProt P11802); settings: cited from earlier work
[11] = target: Kit (Homo sapiens, UniProt P10721); settings: cited from earlier work
[12] = test system: four DIPG cell lines; assay: viability of DIPG cell lines treated in vitro with TG02; format: cell-based, human
Method: as §1

[13] = target: JAK3 (Homo sapiens, UniProt P52333); settings: cited from earlier work
[14] = target: (Homo sapiens, UniProt O15264); settings: Source Invitrogen; 10-point titration in duplicates, done once; cited from earlier work
[15] = tissue and plasma distribution after a single PO dose; format: in vivo, female nude mice
Method: Three mice were sacrificed at a time 10 min, 30 min, 1, 2, 4, 8, and 24 hrs after dosing and pharmacokinetic levels were assessed.

[16] = target: KDR (Homo sapiens, UniProt P35968); settings: cited from earlier work
[17] = test system: DIPG-IV cells overexpressing ERK5 and constitutively active ERK5; assay: EC50 of TG02 in DIPG-IV cells expressing ERK5-HA or ERK5-HA T733E; format: cell-based, human
Method: as §1

[18] = target: Abl (Homo sapiens, UniProt P00519); settings: cited from earlier work
[19] = target: CYP3A4 (Homo sapiens, UniProt P08684); settings: cited from earlier work
[20] = human pharmacokinetics of TG02 as a single agent
[21] = target: ERK5 (Homo sapiens, UniProt Q13164); assay: in vitro kinase assay of purified recombinant ERK5 and MYC; format: biochemical; settings: ERK5 and ATP, 30 minutes at 30° C.
Method: Purified active recombinant ERK5 protein was purchased from ThermoFisher Scientific (Cat #A32872) and purified recombinant MYC was purchased from Abcam (Cat #ab84132). Purified ERK5 and MYC were resuspended in 40 μl of 1× kinase buffer supplemented with […] ATP, 0.25 μg substrate, and 1.0 μg purified recombinant and active kinase. Samples were incubated in the presence or absence of an ERK5 inhibitor for 30 minutes at 30° C. The reaction was terminated with 20 μl 3×SDS sample buffer. Samples were then boiled at 100° C. for 5 minutes and then evaluated by western blotting using a phospho MYC ser62 antibody (1:1000). 1× Kinase Buffer recipe: 25 mM Tris (pH 7.5), 5 mM O-glycerophosphate, 2 mM DTT, 0.1 mM Na3VO4, 10 mM MgCl2.

[22] = target: PRAK (Homo sapiens, UniProt Q8IW41); settings: cited from earlier work
[23] = test system: normal astrocytes or neural stem cells; assay: viability of normal cells treated with TG02; format: cell-based, human; settings: nM ranges
Text: Brain gliomas express high levels of ERK5 (FIG. 29).

[24] = test system: ERK5 auto-phosphorylation and cleaved PARP in tumor; assay: western blot of tumor lysates from treated mice; format: in vivo; settings: mice sacrificed after 5 days of treatment with TG02
Method: Total ERK5 was used as a loading control.
All animal procedures were carried out ethically according to animal user protocols approved by Institutional Animal Care Committee (IACUC). 4-6 week-old non-obese diabetic severe combined immune deficiency male or female mice (NOD-SCID-Prkdc^scid) were injected with 1×10^5 SU-DIPG-13p cells or 1×10^5 SF8628 DIPG cells. Cells were re-suspended in 2 μl of PBS and injected into the pons/midbrain using a stereotactic frame (Stoelting) and automated cell injector (Stoelting) with cells delivered over 4 minutes. Coordinates were as follows from the Lambda suture (x=0.8 mm, y=−0.8 mm, z=−5.0 mm). […]

[25] = target: EGFR (Homo sapiens, UniProt P00533); settings: cited from earlier work
[26] = target: c-Raf (Homo sapiens, UniProt P04049); settings: cited from earlier work
Sequence of c-Raf (P04049 whole entry): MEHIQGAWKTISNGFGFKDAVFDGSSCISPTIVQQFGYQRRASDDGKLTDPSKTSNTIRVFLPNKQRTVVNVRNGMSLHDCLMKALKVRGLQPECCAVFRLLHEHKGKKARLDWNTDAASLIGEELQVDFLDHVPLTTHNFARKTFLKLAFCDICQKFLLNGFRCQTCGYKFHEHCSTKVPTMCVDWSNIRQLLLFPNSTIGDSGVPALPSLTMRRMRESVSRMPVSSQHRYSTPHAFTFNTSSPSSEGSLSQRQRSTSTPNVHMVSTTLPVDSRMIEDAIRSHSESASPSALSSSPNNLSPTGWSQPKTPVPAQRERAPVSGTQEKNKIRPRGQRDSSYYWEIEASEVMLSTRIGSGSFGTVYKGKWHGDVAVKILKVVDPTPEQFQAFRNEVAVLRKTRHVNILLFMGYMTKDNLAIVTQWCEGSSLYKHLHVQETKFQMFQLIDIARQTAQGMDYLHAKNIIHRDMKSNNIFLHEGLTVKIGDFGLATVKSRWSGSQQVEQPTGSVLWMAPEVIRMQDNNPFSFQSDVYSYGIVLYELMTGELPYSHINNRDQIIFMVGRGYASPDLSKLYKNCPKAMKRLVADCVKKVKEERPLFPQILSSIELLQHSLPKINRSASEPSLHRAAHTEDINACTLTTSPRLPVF

Sequence of (Homo sapiens, UniProt O15264) (O15264 whole entry): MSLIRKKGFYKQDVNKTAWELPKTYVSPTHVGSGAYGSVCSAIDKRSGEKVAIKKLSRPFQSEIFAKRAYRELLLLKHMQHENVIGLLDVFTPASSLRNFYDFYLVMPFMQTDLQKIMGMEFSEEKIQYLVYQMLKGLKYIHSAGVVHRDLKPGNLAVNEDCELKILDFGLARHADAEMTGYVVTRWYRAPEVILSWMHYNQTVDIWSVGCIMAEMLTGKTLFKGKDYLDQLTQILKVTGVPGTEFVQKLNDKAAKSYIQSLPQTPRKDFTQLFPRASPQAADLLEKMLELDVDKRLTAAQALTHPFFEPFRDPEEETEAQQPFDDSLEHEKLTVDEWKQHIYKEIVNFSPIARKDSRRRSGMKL
Sequence of Kit (P10721 26-976): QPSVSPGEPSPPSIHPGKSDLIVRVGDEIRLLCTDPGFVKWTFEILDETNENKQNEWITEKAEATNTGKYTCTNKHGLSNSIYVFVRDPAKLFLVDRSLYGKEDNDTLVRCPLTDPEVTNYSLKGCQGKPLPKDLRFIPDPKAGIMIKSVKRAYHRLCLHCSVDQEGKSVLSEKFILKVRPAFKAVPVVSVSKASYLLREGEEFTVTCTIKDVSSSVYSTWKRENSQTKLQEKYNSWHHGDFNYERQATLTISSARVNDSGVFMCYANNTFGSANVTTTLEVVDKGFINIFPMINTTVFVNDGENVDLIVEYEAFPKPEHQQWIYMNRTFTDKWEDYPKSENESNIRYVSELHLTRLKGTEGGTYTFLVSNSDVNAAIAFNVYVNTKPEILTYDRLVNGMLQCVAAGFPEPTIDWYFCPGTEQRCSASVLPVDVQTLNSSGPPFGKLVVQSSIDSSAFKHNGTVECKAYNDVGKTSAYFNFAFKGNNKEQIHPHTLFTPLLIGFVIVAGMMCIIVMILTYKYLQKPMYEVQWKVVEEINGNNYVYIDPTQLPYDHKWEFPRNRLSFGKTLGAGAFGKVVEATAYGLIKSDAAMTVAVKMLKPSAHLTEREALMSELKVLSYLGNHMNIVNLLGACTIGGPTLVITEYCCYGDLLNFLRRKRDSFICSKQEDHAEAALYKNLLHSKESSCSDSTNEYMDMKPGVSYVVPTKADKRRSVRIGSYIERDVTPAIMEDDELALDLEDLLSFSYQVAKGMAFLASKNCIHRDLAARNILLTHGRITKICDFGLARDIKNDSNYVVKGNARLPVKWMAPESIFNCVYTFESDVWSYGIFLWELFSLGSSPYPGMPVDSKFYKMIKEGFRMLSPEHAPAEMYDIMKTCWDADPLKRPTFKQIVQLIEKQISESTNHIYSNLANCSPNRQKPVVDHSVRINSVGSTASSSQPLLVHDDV
Sequence of Abl (P00519 whole entry): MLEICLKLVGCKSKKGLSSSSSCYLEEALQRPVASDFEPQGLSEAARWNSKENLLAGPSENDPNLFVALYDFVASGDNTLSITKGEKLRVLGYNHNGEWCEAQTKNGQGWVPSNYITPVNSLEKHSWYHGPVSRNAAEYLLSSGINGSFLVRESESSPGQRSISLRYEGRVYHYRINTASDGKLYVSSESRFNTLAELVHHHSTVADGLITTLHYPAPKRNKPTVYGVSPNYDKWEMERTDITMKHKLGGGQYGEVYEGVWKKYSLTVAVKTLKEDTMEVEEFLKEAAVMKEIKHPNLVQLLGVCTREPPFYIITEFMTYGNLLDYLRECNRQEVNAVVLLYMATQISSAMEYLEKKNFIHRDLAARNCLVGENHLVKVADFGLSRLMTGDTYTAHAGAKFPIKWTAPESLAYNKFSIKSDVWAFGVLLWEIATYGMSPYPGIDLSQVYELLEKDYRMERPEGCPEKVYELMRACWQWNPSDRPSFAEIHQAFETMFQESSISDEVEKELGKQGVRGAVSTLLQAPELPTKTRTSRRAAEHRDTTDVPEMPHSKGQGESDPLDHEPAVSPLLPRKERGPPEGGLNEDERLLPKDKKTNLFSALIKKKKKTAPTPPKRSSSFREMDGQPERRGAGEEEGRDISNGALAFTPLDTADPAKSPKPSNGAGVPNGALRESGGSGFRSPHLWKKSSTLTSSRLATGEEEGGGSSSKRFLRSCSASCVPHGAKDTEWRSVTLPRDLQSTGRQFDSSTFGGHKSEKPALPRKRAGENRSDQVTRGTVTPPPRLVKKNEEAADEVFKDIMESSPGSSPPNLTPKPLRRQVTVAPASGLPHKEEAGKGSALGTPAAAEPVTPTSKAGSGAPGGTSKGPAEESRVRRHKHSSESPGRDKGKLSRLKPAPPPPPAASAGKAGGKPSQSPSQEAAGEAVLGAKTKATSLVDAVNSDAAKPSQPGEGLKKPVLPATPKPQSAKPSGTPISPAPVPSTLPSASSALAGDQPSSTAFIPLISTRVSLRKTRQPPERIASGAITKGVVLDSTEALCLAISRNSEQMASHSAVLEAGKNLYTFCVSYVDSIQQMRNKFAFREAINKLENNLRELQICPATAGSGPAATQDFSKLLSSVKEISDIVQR
Sequence of EGFR (P00533 25-1210): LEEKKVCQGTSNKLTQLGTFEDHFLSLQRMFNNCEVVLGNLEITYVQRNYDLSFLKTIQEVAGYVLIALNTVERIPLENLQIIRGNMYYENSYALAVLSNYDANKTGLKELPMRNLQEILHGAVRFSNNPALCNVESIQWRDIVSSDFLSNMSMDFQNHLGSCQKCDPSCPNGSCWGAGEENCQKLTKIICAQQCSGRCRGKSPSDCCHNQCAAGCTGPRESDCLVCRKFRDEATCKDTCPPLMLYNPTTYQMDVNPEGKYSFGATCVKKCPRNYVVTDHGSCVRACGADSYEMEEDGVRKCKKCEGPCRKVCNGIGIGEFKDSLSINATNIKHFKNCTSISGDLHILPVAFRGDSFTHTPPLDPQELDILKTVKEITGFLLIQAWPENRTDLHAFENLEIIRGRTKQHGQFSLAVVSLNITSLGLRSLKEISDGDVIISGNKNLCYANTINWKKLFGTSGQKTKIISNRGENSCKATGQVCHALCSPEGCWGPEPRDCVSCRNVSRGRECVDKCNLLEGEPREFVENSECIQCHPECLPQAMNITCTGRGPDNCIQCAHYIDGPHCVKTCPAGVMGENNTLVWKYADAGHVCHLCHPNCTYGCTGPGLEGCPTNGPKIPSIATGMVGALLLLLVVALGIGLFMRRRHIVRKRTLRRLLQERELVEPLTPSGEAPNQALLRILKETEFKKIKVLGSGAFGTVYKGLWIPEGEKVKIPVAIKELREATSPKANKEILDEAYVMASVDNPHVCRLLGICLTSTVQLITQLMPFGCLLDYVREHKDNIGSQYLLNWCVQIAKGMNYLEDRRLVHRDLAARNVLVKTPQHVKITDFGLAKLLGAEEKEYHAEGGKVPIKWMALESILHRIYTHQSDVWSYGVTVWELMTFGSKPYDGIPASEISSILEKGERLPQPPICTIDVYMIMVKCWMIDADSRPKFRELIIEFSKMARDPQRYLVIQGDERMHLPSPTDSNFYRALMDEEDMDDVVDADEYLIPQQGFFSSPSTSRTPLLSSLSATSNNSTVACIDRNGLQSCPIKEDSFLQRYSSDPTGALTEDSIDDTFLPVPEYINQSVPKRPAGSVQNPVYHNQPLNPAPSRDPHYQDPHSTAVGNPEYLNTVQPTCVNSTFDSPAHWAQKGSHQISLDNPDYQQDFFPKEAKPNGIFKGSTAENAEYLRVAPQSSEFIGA
Sequence of Aurora A (O14965 whole entry): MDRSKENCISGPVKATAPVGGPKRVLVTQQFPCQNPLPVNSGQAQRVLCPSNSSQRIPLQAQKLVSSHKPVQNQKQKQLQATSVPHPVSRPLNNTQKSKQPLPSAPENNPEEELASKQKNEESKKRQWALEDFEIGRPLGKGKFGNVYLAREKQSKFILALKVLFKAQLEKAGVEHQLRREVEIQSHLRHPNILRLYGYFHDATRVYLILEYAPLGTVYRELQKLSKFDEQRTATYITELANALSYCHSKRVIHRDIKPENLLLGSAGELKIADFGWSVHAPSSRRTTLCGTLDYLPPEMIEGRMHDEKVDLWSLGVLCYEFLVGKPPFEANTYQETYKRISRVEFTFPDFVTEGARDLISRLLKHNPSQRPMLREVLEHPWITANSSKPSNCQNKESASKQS
Sequence of p38α (Q16539 whole entry): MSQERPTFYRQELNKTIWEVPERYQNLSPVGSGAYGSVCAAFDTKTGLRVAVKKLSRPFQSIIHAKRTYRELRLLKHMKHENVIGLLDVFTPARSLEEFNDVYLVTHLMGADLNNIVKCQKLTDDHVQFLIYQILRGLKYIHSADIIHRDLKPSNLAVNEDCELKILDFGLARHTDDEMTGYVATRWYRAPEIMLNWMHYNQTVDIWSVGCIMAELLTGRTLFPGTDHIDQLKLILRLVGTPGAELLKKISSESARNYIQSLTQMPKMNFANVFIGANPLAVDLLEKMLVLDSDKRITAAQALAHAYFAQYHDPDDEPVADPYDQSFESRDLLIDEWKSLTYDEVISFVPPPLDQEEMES

Question: Which IC50 [1] does the source give for CN1C/C=C/CCOc2cccc(c2)-c2ccnc(n2)Nc2cccc(c2)C1 [TG02, (16E)-14-methyl-20-oxa-5,7,14,27-tetraazatetracyclo[19.3.1.12,6.18,12]heptacosa-1(25),2(27),3,5,8(26),9,11,16,21,23-decaene] here?
Answer: The IC50 was 8 nM.

Question: What about the “inhibition at 100 nm” value [2] of the same compound?
Answer: The value was “less than 50%”.

Question: What about the IC50 [3] of the same compound?
Answer: The IC50 was 59 nM.

Question: What about the “inhibition at 100 nm” value [4] of the same compound?
Answer: The value was “less than 50%”.

Question: And the IC50 [5]?
Answer: Its IC50 is 11 nM.

Question: And the “inhibition at 100 nm” value [6]?
Answer: The value was “less than 50%”.

Question: And the “resistance to TG02” value [7]?
Answer: Its value is “promoted resistance to TG02”.

Question: What about the “inhibition at 100 nm” value [8] of the same compound?
Answer: The value was “less than 50%”.

Question: What about the “inhibition at 100 nm” value [9] of the same compound?
Answer: The value was “less than 50%”.

Question: And the “inhibition at 100 nm” value [10]?
Answer: The value was “less than 50%”.

Question: And the “inhibition at 100 nm” value [11]?
Answer: The value was “less than 50%”.

Question: What about the IC50 ([12]; Homo sapiens, read-out: IC50 of TG02 in vitro against DIPG cell lines, approximate) of the same compound?
Answer: Its IC50 is ~100 nM.

Question: And the EC50 ([12]; Homo sapiens, median of four DIPG cell lines in vitro, read-out: median EC50 (decreased viability))?
Answer: Its EC50 is 75 nM.

Question: What about the EC50 ([12]; Homo sapiens, range over four DIPG cell lines in vitro, read-out: EC50 range (decreased viability)) of the same compound?
Answer: The EC50 was 60 to 93 nM.

Question: And the apoptosis ([12]; four DIPG cell lines in vitro)?
Answer: The apoptosis was “increased apoptosis”.

Question: What about the “inhibition at 100 nm” value [13] of the same compound?
Answer: The value was “less than 50%”.

Question: And the IC50 [14]?
Answer: Its IC50 is 56 nM.

Question: And the blood-brain barrier penetration ([15]; mouse, in vivo)?
Answer: Its blood-brain barrier penetration is “blood-brain barrier penetrant”.

Question: What about the “Cmax in the brain compared to plasma” value ([15]; single PO dose of 75 mg/kg) of the same compound?
Answer: Its value is “at least twice as high”.

Question: And the “exposure (AUC0-last) in the brain compared to plasma” value ([15]; single PO dose of 75 mg/kg)?
Answer: Its value is “at least twice as high”.

Question: And the “inhibition at 100 nm” value [16]?
Answer: The value was “less than 50%”.

Question: And the EC50 ([17]; Homo sapiens, read-out: EC50 to treatment with TG02, overexpression of ERK5 and constitutively active ERK in DIPG-IV cells)?
Answer: The EC50 was > 1000 nM.

Question: What about the “cleaved Caspase 3/7 levels” value ([17]; TG02 100 nM, ERK5-HA or ERK5-HA T733E vs empty vector) of the same compound?
Answer: The value was “reduced cleaved Caspase 3/7 levels”.

Question: What about the “inhibition at 100 nm” value [18] of the same compound?
Answer: Its value is “less than 50%”.

Question: And the “substrate of CYP3A4” value [19]?
Answer: Its value is “substrate”.

Question: And the “peak concentration in plasma” value ([20]; adults, single dose of 200 mg, equivalent)?
Answer: The value was 11,000 nM.

Question: What about the “Cmax in adults over in vitro IC50 in patient-derived DIPG cell lines” value ([20]; in vivo) of the same compound?
Answer: The value was ~2 logs.

Question: What about the “phosphorylation of MYC(S62) by ERK5” value [21] of the same compound?
Answer: Its value is “inhibited”.

Question: And the “inhibition at 100 nm” value [22]?
Answer: Its value is “less than 50%”.

Question: And the “toxicity to normal cells” value [23]?
Answer: Its value is “not toxic”.

Question: And the “in vivo ERK5 auto-phosphorylation” value [24]?
Answer: The value was “inhibition of ERK5 auto-phosphorylation”.

Question: What about the “in vivo apoptosis by cleaved PARP” value [24] of the same compound?
Answer: Its value is “induction of apoptosis”.

Question: And the “inhibition at 100 nm” value [25]?
Answer: The value was “less than 50%”.

Question: And the “inhibition at 100 nm” value [26]?
Answer: The value was “less than 50%”.
